What all share (assay): NCI-60 cell line screen, 48 h
Test [1] deals with PC-3 prostate.
The test system of test [2] is HT29 colon.
In test [3] the test system is EKVX NSCLC.
Test [4] has as its system NCI-H23 lung.
For test [5], the system named is LOX IMVI melanoma.
Test [6] concerns CCRF-CEM leukemia.
The test system of test [7] is UACC-62 melanoma.
Test [8] has as its system OVCAR-4 ovarian.
The subject of test [9] is HL-60(TB) leukemia.
Test [10] has as its system RPMI-8226 leukemia.

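Where inhibition never reached the appropriate level, the endpoint shown equals the highest concentration tested. Otherwise, values were interpolated linearly from a five-concentration, 48-hour dose response in 96-well plates. TGI is the concentration that stops growth completely.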 Bounds are passed on as bounds.

As for `CCCCCC(=O)OCC1(CO)C/C(=C/CC(C(C)C)C(C)C)C(=O)O1` (centres undefined), the TGI is more than 75 µM in test [1]; more than 75 µM in test [2]; more than 75 µM in [3]; more than 75 µM in [4]; 20.5 µM in test [5]; 68.7 µM in test [6]. Further, the TGI in [7] and in [8] was more than 75 µM in each case.

With `COc1ccc(C2=C(N)c3cc(OC)ccc3C2=O)cc1`, the TGI in [1], in test [2], in test [3], in test [4], in test [5] and in test [9] was more than 100 µM in each case. For the same compound, the TGI in [7], in test [10] and in test [8] was more than 100 µM each time.

Take `CC1CC2OC(=N)C1(C#N)C2(C#N)C#N` (centres undefined): the TGI in [1] was found to be 71.7 µM; in test [2] it was 47.7 µM; in test [3] it was 51.1 µM; in [4] it was 63.7 µM; in test [5], 31 µM; in test [6], 44.3 µM. The TGI in test [7] is more than 100 µM; in test [10], 48 µM.

With `COc1ccc(Cn2nc(OCc3ccccc3)c3cc([N+](=O)[O-])ccc32)cc1`, the TGI in [2], in test [4], in [5], in test [9], in test [6] and in test [7] was more than 100 µM throughout. Besides, in test [10], the TGI is more than 100 µM.

Consider `CC(=O)c1nc(C#N)c(N)o1`, for which the TGI in [1], in test [2], in [3], in test [4], in test [5] and in [6] was more than 100 µM each time. The TGI in test [7], in [10] and in test [8] was more than 100 µM in each case.

For the compound `O=c1cc(-c2ccccc2)[nH]c2c(F)ccc(F)c12`, the TGI in test [2], in test [4], in test [5], in test [9], in test [6] and in [7] was more than 100 µM throughout. Also, the TGI in test [10] and in test [8] was more than 100 µM each time.

For the compound `COc1cc(C)c(S(=O)(=O)N(CCCN)OCCCN)c(C)c1C`, the TGI in test [1] was 77.3 µM; in test [2], more than 100 µM; in [3], more than 100 µM; in [4], more than 100 µM; in test [5] it was 84.6 µM; in [6], more than 100 µM. In addition, the values for the TGI in test [7], in test [10] and in test [8] were more than 100 µM, 49 µM and more than 100 µM, respectively.

For `COc1ccc(OC)c([N+](=O)[O-])c1-c1nc2sc(C)cn2c1/C=N/N=C(N)N`, the TGI in [1] was more than 100 µM; in [2], 50.1 µM; in test [3], more than 100 µM; in test [4] it was 66 µM; in [5] it was more than 100 µM; in test [6], more than 100 µM. In addition, the figures for the TGI in [7], in test [10] and in [8] were 69.3 µM, more than 100 µM and 47.3 µM, respectively.

Regarding `NS(=O)(=O)c1ccc(NS(=O)(=O)c2ccc(NC(=O)N(c3ccccc3)c3ccccc3)cc2)cc1`, the TGI in [1], in test [2], in test [3], in [4], in [5] and in test [6] was more than 100 µM each time. The TGI in [7] was more than 100 µM; in [10], 94.9 µM; in test [8], more than 100 µM.

Consider `N#Cc1c(NC(=S)Nc2ccccc2)sc2c1CCCC2`, for which the TGI in test [1], in test [2], in test [3], in test [4], in [5] and in test [9] was more than 100 µM in each case. Besides, the TGI in test [7], in [10] and in test [8] was more than 100 µM each time.

As to `CCN(CC)CCC1(C(=O)OC)SCCc2ccc(C)cc21` (centres undefined), the TGI in [1], in test [3], in [4], in test [5], in test [6] and in test [7] was more than 100 µM each time. Further, the TGI in test [10] and in test [8] was more than 100 µM throughout.

For the compound `Fc1sc2c(c1F)C1CCC2C1` (centres undefined), the TGI in [1], in test [2], in [3], in test [4], in test [5] and in test [7] was more than 100 µM in each case. Also, the results for the TGI in test [10] and in test [8] were 87.1 µM and more than 100 µM, respectively.

In the case of `CCC(C)Cn1c(C)nc2c1C(=O)c1ccccc1C2=O` (centres undefined), the TGI in test [2] is more than 100 µM; in test [3], more than 100 µM; in test [4], 48.4 µM; in test [5], 66.7 µM; in [9], 28.5 µM; in test [6], 96.8 µM. For the same compound, the TGI in test [7] is 27.5 µM; in test [8], more than 100 µM.

Turning to `Cn1c(-c2cccs2)cc(-c2ccsc2)c1-c1ccsc1`, the TGI in test [1], in test [2], in test [3], in [4], in test [6] and in test [7] was more than 100 µM each time. The compound also returned a TGI in [8] of more than 100 µM.

For `O=C(CSCC(=O)N/N=C\c1cccc(Br)c1)N/N=C\c1cccc(Br)c1`, the TGI in test [1] was 38.1 µM; in test [2], 66.7 µM; in [3], 63.7 µM; in [4], 30.1 µM; in [5] it was 23.5 µM; in test [9] it was more than 100 µM. Besides, the TGI in test [7] was determined as 29.4 µM; in test [8], 69.9 µM.
